Experimental data published in PMC2889615 (Biochemistry, 2010).

Experiments:
PODANSg2158 = target: T1, PODANSg2158 (Podospora anserina, UniProt B2AM55); assay: X-ray crystal structure, […] Å; type: binding; conditions: wild-type enzyme; FAD in each of four subunits; pH 6 crystals
T1 sequence (B2AM55 1-430): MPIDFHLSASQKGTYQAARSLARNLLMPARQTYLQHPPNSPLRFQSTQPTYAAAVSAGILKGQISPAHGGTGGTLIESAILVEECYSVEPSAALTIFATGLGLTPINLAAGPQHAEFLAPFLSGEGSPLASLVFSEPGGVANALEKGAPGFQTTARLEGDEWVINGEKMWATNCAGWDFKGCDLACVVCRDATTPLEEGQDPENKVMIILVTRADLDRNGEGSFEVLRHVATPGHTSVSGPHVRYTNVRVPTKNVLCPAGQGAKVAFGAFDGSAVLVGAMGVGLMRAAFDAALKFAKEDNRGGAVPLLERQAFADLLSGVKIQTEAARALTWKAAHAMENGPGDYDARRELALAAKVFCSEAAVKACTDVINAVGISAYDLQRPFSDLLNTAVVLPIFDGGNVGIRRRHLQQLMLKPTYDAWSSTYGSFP

Asp402 = Asp402 (UniProt position 402, CYPLFDGGNIG); assay: kinetics; conditions: free enzyme; substrate nitroethane; cited from earlier work

Molecule | X-ray crystal structure, 2.0 Å (PODANSg2158) | pKa (Asp402)
Cc1cc2nc3c(=O)[nH]c(=O)nc-3n(C[C@H](O)[C@H](O)[C@H](O)COP(=O)(O)OP(=O)(O)OC[C@H]3O[C@@H](n4cnc5c(N)ncnc54)[C@H](O)[C@@H]3O)c2cc1C [FAD] | FAD could be clearly identified in each of the subunits. | 
Nitroalkane oxidase (NAO) (Fusarium oxysporum) |  | 6.9
